Among the data in PubChem BioAssay AID2067 (The Scripps Research Institute Molecular Screening Center, 2009) are IC50 and Ki values, retold here.

SMILES strings stand for the structures.

The experiment has as its target Collagenase 3 (Homo sapiens) (UniProt P45452). Briefly: MMP13 inhibition and MMP selectivity, late-stage follow-up, selectivity assay for MMP13 inhibitor project, biochemical, probe development, late stage results (AID 2067). Particulars: recombinant MMP panel, fTHP FRET substrate cleavage, MMP-13; for Ki: Ki assay, MMP-13 Ki, Lineweaver-Burk.

Usually IC50 stands for the concentration at which inhibition is half-maximal. The Ki is a measure of affinity in units of concentration, obtained from inhibition or displacement. Take `Cc1ccc(CSc2nc3c(c(=O)[nH]2)CCC3)cc1`: the IC50 is 2440 nM and the Ki was 840 nM.

In the case of `COC(=O)c1ccc(CSc2nc3c(c(=O)[nH]2)CCC3)cc1`, the IC50 is 2820 nM and the Ki was determined as 1500 nM.

With `O=c1[nH]c(SCc2ccc(Cl)cc2)nc2c1CCC2`, the IC50 was 3360 nM and the Ki was determined as 3800 nM.
